Results as given in patent publication US9981945B2, “Pyrimidine derivatives as CFTR modulators” (NuBridge BioSciences, priority 2015, dated 2018).

Target: T1, ΔF508 mutant CFTR (Homo sapiens, UniProt P13569, DEL508-508)
T1 construct: expressed in transfected cells; host or cells: Fischer rat thyroid (FRT) cells
Assay: Fluorescence (YFP halide quenching) assay of ΔF508 mutant CFTR activity in FRT cells
Type: cell-based
Parameters: key: fold of mean activity with forskolin alone (I− quenching rate)
Settings: FRT cells expressing ΔF508-CFTR and YFP-H148Q/I152L, rescued at 27° C. 20-24 h; forskolin 20 μM + test compound 20 μM for 20 min; I− influx rate normalized to forskolin alone
Source text: The ΔF508 mutant CFTR activities of the CFTR modulators are detected using the Fluorescence Assay developed by Pedemonte (Pedemonte N., et al., Antihypertensive 1,4-dihydropyridines as correctors of the cystic fibrosis transmembrane conductance regulator channel gating defect caused by cystic fibrosis mutations, Mol. Pharmacol., 2005, 68, 1736-1746).
Fischer rat thyroid (FRT) cells, stably transfected with ΔF508 were retransfected with the YFP-H148Q/I152L fluorescent protein. The cells were plated (100,000 cells/well) on black 96-well microplates with clear plastic bottom (Corning Life Sciences, Acton, Mass.).
The 96-well microplates containing FRT cells expressing F508-CFTR and the halide-sensitive YFP were incubated at 27° C. for 20 to 24 h to allow rescue of the mutant protein to the plasma membrane. After incubation, cells were washed with PBS (containing 137 mM NaCl, 2.7 mM KCl, 8.1 mM Na2HPO4, 1.5 mM KH2PO4, 1 mM CaCl2, and 0.5 mM MgCl2) and stimulated for 20 min with forskolin (20 μM) and test compounds (20 μM) in a final volume of 60 μl. Microplates were then transferred to a microplate reader for CFTR activity determination. Each assay consisted of a continuous 14-s fluorescence reading (5 points per second) with 2 s before and 12 s after injection of 165 μl of an iodide-containing solution (PBS with Cl^− replaced by I^−). Final iodide concentration in the wells was 100 mM. […] To determine I^− influx rate, the final 11 s of the data for each well were fitted with an exponential function to extrapolate initial slope. CFTR activity was determined by measuring the rate of fluorescence quenching induced by extracellular addition of I^−. Data are normalized to the mean activity measured in the presence of forskolin alone.

T1 sequence (P13569 with tags, fused parts or gaps DEL508-508): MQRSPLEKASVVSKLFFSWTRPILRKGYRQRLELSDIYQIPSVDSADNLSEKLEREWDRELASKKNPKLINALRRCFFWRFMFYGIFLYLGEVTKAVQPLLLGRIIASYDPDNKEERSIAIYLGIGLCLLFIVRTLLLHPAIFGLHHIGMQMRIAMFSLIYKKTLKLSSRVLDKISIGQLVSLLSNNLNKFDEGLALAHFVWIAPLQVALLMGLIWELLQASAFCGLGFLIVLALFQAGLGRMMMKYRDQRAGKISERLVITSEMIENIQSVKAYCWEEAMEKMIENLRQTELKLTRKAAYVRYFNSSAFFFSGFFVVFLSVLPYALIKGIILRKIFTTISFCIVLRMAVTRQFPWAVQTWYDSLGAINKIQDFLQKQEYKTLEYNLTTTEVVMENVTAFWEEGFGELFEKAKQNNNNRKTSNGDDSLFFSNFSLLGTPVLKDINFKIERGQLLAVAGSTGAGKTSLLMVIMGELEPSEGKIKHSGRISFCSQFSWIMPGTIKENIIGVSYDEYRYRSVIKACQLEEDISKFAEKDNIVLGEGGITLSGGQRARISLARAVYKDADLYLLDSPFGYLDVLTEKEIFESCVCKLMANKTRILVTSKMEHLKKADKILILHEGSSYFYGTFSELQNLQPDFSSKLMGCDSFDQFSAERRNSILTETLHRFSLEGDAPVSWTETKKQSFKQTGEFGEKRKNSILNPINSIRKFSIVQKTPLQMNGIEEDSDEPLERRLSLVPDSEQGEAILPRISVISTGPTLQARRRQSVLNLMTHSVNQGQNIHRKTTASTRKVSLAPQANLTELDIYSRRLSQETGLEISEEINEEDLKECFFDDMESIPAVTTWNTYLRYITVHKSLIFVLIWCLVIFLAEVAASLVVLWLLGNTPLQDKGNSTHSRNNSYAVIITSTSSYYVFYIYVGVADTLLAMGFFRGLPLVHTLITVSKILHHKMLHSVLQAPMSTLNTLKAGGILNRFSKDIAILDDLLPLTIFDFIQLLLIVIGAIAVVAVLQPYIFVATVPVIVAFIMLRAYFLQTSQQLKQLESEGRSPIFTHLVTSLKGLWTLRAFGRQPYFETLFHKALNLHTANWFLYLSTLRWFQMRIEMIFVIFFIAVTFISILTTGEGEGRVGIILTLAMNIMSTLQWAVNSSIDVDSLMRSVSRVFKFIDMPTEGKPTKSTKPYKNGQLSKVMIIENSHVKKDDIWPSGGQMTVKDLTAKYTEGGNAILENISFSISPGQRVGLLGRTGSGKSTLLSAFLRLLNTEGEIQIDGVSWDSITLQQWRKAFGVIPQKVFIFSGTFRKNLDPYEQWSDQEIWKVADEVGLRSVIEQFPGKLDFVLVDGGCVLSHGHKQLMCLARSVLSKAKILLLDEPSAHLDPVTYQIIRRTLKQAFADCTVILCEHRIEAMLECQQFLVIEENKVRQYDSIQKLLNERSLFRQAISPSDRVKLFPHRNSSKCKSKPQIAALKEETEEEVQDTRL

Compound	CFTR Activity
Cl.Nc1cc(F)c(-c2c(F)cccc2F)nc1C(=O)Nc1cncnc1OC1CCCC(N)C1 (centres unmarked) [Example 37, 3-amino-N-(4-((3-aminocyclohexyl)oxy)pyrimidin-5-yl)-6-(2,6-difluorophenyl)-5-fluoropicolinamide]	4.1
Cl.Nc1cc(F)c(-c2c(F)cccc2F)nc1C(=O)Nc1cncnc1OCC1CCNC1 (centres unmarked) [Example 28]	2.3
CN(C)CCCOc1ncncc1NC(=O)c1ccc(F)c(-c2c(F)cccc2F)n1.Cl [Example 14, 6-(2,6-difluorophenyl)-N-(4-(3-(dimethylamino)propoxy)pyrimidin-5-yl)-5-fluoropicolinamide hydrochloride]	0.2
Cl.Nc1cc(C(F)(F)F)c(-c2c(F)cccc2F)nc1C(=O)Nc1cncnc1OCC1CCNCC1 [Example 49, 3-amino-6-(2,6-difluorophenyl)-N-(4-(piperidin-4-ylmethoxy)pyrimidin-5-yl)-5-(trifluoromethyl)picolinamide hydrochloride]	3.2
COc1cccc(F)c1-c1nc(C(=O)Nc2cncnc2OC2CCCNCC2)ccc1F.Cl (centres unmarked) [Example 41, N-(4-(azepan-4-yloxy)pyrimidin-5-yl)-5-fluoro-6-(2-fluoro-6-methoxyphenyl)picolinamide hydrochloride]	1.8
Cl.O=C(Nc1cncnc1OC1CCNCC1)c1ccc(F)c(-c2c(F)cccc2F)n1 [Example 3, 6-(2,6-difluorophenyl)-5-fluoro-N-(4-(piperidin-4-yloxy)pyrimidin-5-yl)picolinamide hydrochloride]	1.3
Cl.Nc1cc(C(F)(F)F)c(-c2c(F)cccc2F)nc1C(=O)Nc1cncnc1O[C@H]1CC[C@H](N)CC1 [Example 52, 3-amino-N-(4-(((1r,4r)-4-aminocyclohexyl)oxy)pyrimidin-5-yl)-6-(2,6-difluorophenyl)-5-(trifluoromethyl)picolinamide hydrochloride]	4.3
Cl.Nc1cc(C(F)(F)F)c(-c2c(F)cccc2F)nc1C(=O)Nc1cncnc1OCC1CNC1 [Example 50, 3-amino-N-(4-(azetidin-3-ylmethoxy)pyrimidin-5-yl)-6-(2,6-difluorophenyl)-5-(trifluoromethyl)picolinamide hydrochloride]	2.9
Cl.O=C(Nc1cncnc1OCC1CCNCC1)c1ccc(C(F)(F)F)c(-c2c(F)cccc2F)n1 [Example 43, 6-(2,6-difluorophenyl)-N-(4-(piperidin-4-ylmethoxy)pyrimidin-5-yl)-5-(trifluoromethyl)picolinamide hydrochloride]	1.3
Cl.NCC(CCl)COc1ncncc1NC(=O)c1ccc(F)c(-c2c(F)cccc2F)n1 (centres unmarked) [Example 30, N-(4-(3-amino-2-(chloromethyl)propoxy)pyrimidin-5-yl)-6-(2,6-difluorophenyl)-5-fluoropicolinamide hydrochloride]	1.5
Cl.NCCCCOc1ncncc1NC(=O)c1nc(-c2c(F)cccc2F)c(F)cc1N [Example 36, 3-amino-N-(4-(4-aminobutoxy)pyrimidin-5-yl)-6-(2,6-difluorophenyl)-5-fluoropicolinamide]	2.4
Cl.O=C(Nc1cncnc1OCC1CCNC1)c1ccc(F)c(-c2c(F)cccc2F)n1 (centres unmarked) [Example 8, 6-(2,6-difluorophenyl)-5-fluoro-N-(4-(pyrrolidin-3-ylmethoxy)pyrimidin-5-yl)picolinamide hydrochloride]	0.6
Cl.N[C@H]1CC[C@H](Oc2ncncc2NC(=O)c2ccc(C(F)(F)F)c(-c3c(F)cccc3F)n2)CC1 [Example 46, N-(4-(((1r,4r)-4-aminocyclohexyl)oxy)pyrimidin-5-yl)-6-(2,6-difluorophenyl)-5-(trifluoromethyl)picolinamide hydrochloride]	3.2
O=C(Nc1cncnc1OCCCO)c1ccc(F)c(-c2c(F)cccc2F)n1 [Example 17, 6-(2,6-difluorophenyl)-5-fluoro-N-(4-(3-hydroxypropoxy)pyrimidin-5-yl)picolinamide]	0.2
Cl.NCC(CO)COc1ncncc1NC(=O)c1nc(-c2c(F)cccc2F)c(C(F)(F)F)cc1N (centres unmarked) [Example 59, 3-amino-N-(4-(3-amino-2-(hydroxymethyl)propoxy)pyrimidin-5-yl)-6-(2,6-difluorophenyl)-5-(trifluoromethyl)picolinamide hydrochloride]	3.0
Cl.Nc1cc(F)c(-c2c(F)cccc2F)nc1C(=O)Nc1cncnc1OC1CCC(N)CC1 (centres unmarked) [Example 27, 3-amino-N-(4-(((1r,4r)-4-aminocyclohexyl)oxy)pyrimidin-5-yl)-6-(2,6-difluorophenyl)-5-fluoropicolinamide hydrochloride]	4.4
CC(C)(O)CCCOc1ncncc1NC(=O)c1ccc(F)c(-c2c(F)cccc2F)n1 [Example 20, 6-(2,6-difluorophenyl)-5-fluoro-N-(4-((4-hydroxy-4-methylpentyl)oxy)pyrimidin-5-yl)picolinamide]	0.1
O=C(Nc1cncnc1OCCC(O)CO)c1ccc(F)c(-c2c(F)cccc2F)n1 (centres unmarked) [Example 21, 6-(2,6-difluorophenyl)-N-(4-(3,4-dihydroxybutoxy)pyrimidin-5-yl)-5-fluoropicolinamide]	0.05
Cl.Nc1cc(C(F)(F)F)c(-c2c(F)cccc2F)nc1C(=O)Nc1cncnc1OC1CCCNCC1 (centres unmarked) [Example 48, 3-amino-N-(4-(azepan-4-yloxy)pyrimidin-5-yl)-6-(2,6-difluorophenyl)-5-(trifluoromethyl)picolinamide hydrochloride]	4.1
Cl.Nc1cc(F)c(-c2ccccc2)nc1C(=O)Nc1cncnc1OC1CCNC1 (centres unmarked) [Example 38, 3-amino-5-fluoro-6-phenyl-N-(4-(pyrrolidin-3-yloxy)pyrimidin-5-yl)picolinamide hydrochloride]	1.1
Cl.NCC(CO)COc1ncncc1NC(=O)c1ccc(C(F)(F)F)c(-c2c(F)cccc2F)n1 (centres unmarked) [Example 58, N-(4-(3-amino-2-(hydroxymethyl)propoxy)pyrimidin-5-yl)-6-(2,6-difluorophenyl)-5-(trifluoromethyl)picolinamide hydrochloride]	2.8
Cl.O=C(Nc1cncnc1OCC1CCNCC1)c1ccc(F)c(-c2c(F)cccc2F)n1 [Example 1, 6-(2,6-difluorophenyl)-5-fluoro-N-(4-(piperidin-4-ylmethoxy)pyrimidin-5-yl)picolinamide hydrochloride]	1.2
Cl.NC1CCCC(Oc2ncncc2NC(=O)c2ccc(F)c(-c3c(F)cccc3F)n2)C1 (centres unmarked) [Example 11, N-(4-((3-aminocyclohexyl)oxy)pyrimidin-5-yl)-6-(2,6-difluorophenyl)-5-fluoropicolinamide hydrochloride]	3.0
Cl.O=C(Nc1cncnc1OC1CCNCC1)c1ccc(C(F)(F)F)c(-c2c(F)cccc2F)n1 [Example 45, 6-(2,6-difluorophenyl)-N-(4-(piperidin-4-yloxy)pyrimidin-5-yl)-5-(trifluoromethyl)picolinamide hydrochloride]	2.7
Cl.Nc1cc(C(F)(F)F)c(-c2c(F)cccc2F)nc1C(=O)Nc1cncnc1OC1CCCC(N)C1 (centres unmarked) [Example 61, 3-amino-N-(4-((3-aminocyclohexyl)oxy)pyrimidin-5-yl)-6-(2,6-difluorophenyl)-5-(trifluoromethyl)picolinamide hydrochloride]	4.2
Cl.Nc1cc(F)c(-c2c(F)cccc2F)nc1C(=O)Nc1cncnc1OCC1CNC1 [Example 32, 3-amino-N-(4-(azetidin-3-ylmethoxy)pyrimidin-5-yl)-6-(2,6-difluorophenyl)-5-fluoropicolinamide hydrochloride]	1.0
Cl.NCC(CO)COc1ncncc1NC(=O)c1ccc(F)c(-c2c(F)cccc2F)n1 (centres unmarked) [Example 56, N-(4-(3-amino-2-(hydroxymethyl)propoxy)pyrimidin-5-yl)-6-(2,6-difluorophenyl)-5-fluoropicolinamide hydrochloride]	2.5
Cl.O=C(Nc1cncnc1OC1CCCNCC1)c1nc(-c2c(F)cccc2F)ccc1F (centres unmarked) [Example 40, N-(4-(azepan-4-yloxy)pyrimidin-5-yl)-6-(2,6-difluorophenyl)-3-fluoropicolinamide hydrochloride]	1.9
Cl.O=C(Nc1cncnc1OC1CCCNCC1)c1ccc(F)c(-c2c(F)cccc2F)n1 (centres unmarked) [Example 6, N-(4-(azepan-4-yloxy)pyrimidin-5-yl)-6-(2,6-difluorophenyl)-5-fluoropicolinamide hydrochloride]	1.9
